Test results from patent US20260250247A1, “NOVEL INDOLINE DERIVATIVE AND USE THEREOF” (CK REGEON INC., priority 2023, published 2026).
pIC50: −log10 of the molar value.

Tests used:
[1] = tested on: mice induced with metabolic dysfunction-associated steatohepatitis (MASH); experiment: Liver fibrosis score from collagen staining (Picrosirius red) in MASH mice; assay type: in vivo, C57BL/6N mice; conditions: 25 mg/kg/day orally for 4 weeks; mean±SD; normal group 0, MASH group 3.11
Experimental: (§1) Five-week-old wild-type male C57BL/6N mice were purchased from Orient Bio Co., Ltd. They were allowed to acclimate to the laboratory environment for one week. Mice weighing 18-20 g on average were used in the experiment. To ensure ethical and scientific validity and efficient management of animal experiments, the experiment was conducted with the approval of the Institutional Review Board (IACUC-A-202205-1472-01) of Severance Hospital, Yonsei University College of Medicine.
(§2) The mice were divided into a normal group (NCD) and a high-fat diet group (HFD). The normal group (NCD) was fed a normal chow diet (NCD, Teklad Global 18% protein rodent diet), and the high-fat diet group (HFD) was fed a high-fat diet (HFD, D12492) in which fat accounted for 60% of the total calories, for 8 weeks.
(§3) Mice induced with metabolic dysfunction-associated steatohepatitis (MASH) (hereinafter, referred to as MASH or MASH group) were prepared by administering CCl4 intraperitoneally twice a week for 4 weeks after feeding the high-fat diet (HFD) for 8 weeks. The […] was diluted with corn oil at a ratio of 1:19 and injected at a dosage of 2 mL/kg. The normal group (NOD) was administered the same volume of physiological saline.
(§4) The animals were divided into 7 groups, each with 10 animals.
After preparing the 7 groups, the animals were euthanized using carbon dioxide and the liver tissues were extracted. The extracted tissues were fixed in 4% neutral paraformaldehyde and embedded in paraffin to prepare sections. The paraffin sections were cut to 4-μm thickness, deparaffinized, and then rehydrated. The hydrated sections were stained with a Weigert's iron hematoxylin solution for 8 minutes and then with Picrosirius red for 1 hour. Collagen fibers were stained red and nuclei were stained blue. The sections were photographed using a bright-field microscope (Nikon TE-2000U).
The main mechanism of nonalcoholic fatty liver disease is the induction of hepatic stellate cell activation, which induces collagen production and leads to liver fibrosis due to collagen accumulation. From the result of collagen staining (Picrosirius red) for observing the total amount of collagen deposition in Test Example 3-6, the liver fibrosis score was analyzed. Stages 2 to 3 were diagnosed as nonalcoholic fatty liver disease (MASH) (M. Brunt et al., 2005).
All quantitative data are presented as mean±standard deviation (SD). In each experiment, all measurements were made at least three times, and data were analyzed using the two-tailed, unpaired Student's t test. P values of <0.05 were considered statistically significant.

[2] = tested on: lipid droplets / PPARγ in liver tissue; experiment: Liver Oil Red O staining and PPARγ immunohistochemistry in MASH mice; assay type: in vivo, C57BL/6N mice; conditions: 25 mg/kg/day orally for 4 weeks
Experimental: as §1, §2, §3, §4
It was investigated whether the accumulation of triglycerides in the liver is suppressed effectively. For this purpose, liver tissue was extracted from each group, and it was prepared into 10-μm thick cryosections, which were then stained with Oil Red O. Details are as follows. After preparing the 7 groups, the animals were euthanized using carbon dioxide and the liver tissues were extracted. A certain area of the extracted liver tissue was cryosectioned to 10 μm thickness, fixed in 4% neutral paraformaldehyde for 20 minutes at room temperature, and washed with 70% isopropanol (Duksan Pure Chemicals). After staining with the Oil Red O (Sigma-Aldrich) reagent for 20 minutes, the sections were washed thoroughly three times with distilled water. The tissue was counterstained with Mayer's hematoxylin. Then, Oil Red O staining images were visualized using a bright-field microscope (Nikon TE-2000U).
After preparing the 7 groups, the animals were sacrificed using carbon dioxide and the liver tissues were extracted. The extracted tissues were fixed in 4% neutral paraformaldehyde and embedded in paraffin to prepare sections. The paraffin sections were cut to 4-μm thickness, deparaffinized, and then rehydrated. For antigen exposure, slides were autoclaved in a 10 mM sodium citrate buffer (pH 6.0). To block endogenous peroxidase activity prior to peroxidase IHC analysis, the tissues were incubated with 0.3% H2O2 for 10 minutes. The incubated sections were treated with phosphate-buffered saline (PBS) containing 10% NGS and 0.3% Tween-20 for 1 hour at room temperature, treated with primary antibodies of anti-PPARγ (1:50; Abcam), and incubated overnight at 4° C.
The sections treated with the primary antibodies were washed with PBS and incubated with biotinylated anti-mouse (1:400; Dako) or anti-rabbit (1:400; Dako) secondary antibodies for 1 hour at room temperature. The sections incubated with the secondary antibodies were stained with 3,3′-diaminobenzidine (DAB; Dako) for 3-7 minutes and then counterstained with Mayer's haematoxylin. All incubations were performed in a humid chamber. After the staining, images were taken and analyzed using a bright-field microscope (Nikon TE-2000U).

[3] = biological target: CXXC5-Dvl interaction (PDZ domain of Dvl (dishevelled) protein / PTD-DBM-FITC); experiment: CXXC5-Dvl binding inhibition, competition of PTD-DBM-FITC on plate-bound Dvl PDZ domain; conditions: purified Dvl PDZ domain 5 μg/mL, 10 μM PTD-DBM-FITC, compounds 0.001-100 μM, FITC fluorescence
Experimental: 5 μg/mL of the purified PDZ domain ofDvl (dishevelled) protein was attached to the bottom of a 96-well black immunoplate and left in a chamber at 4° C. for one day. The next day, each well was washed with PBS and 10 μM PTD-DBM-FITC was added. After incubation at room temperature for 3 hours, each well was washed with PBS. Each well was treated with the indoline derivatives at various concentrations (100, 10, 1, 0.1, 0.01, and 0.001 μM) in 100 μL of PBS. After washing with a buffer, fluorescence was measured by FITC using a microplate reader. A competition binding curve showing the degree of CXXC5-Dvl PPI inhibition was constructed using the GraphPad Prism software, and the IC50 value was calculated. […] CK090), and the intermediate compound 5-cyanoindirubin as controls.

[4] = tested on: mice induced with metabolic dysfunction-associated steatohepatitis (MASH); experiment: Liver morphology, H&E histology and MAFLD activity score in MASH mice; assay type: in vivo, C57BL/6N mice; conditions: 25 mg/kg/day orally for 4 weeks
Experimental: as §1
as §2, with “weeks. […]” for “weeks.”
After preparing the 7 groups, the animals were sacrificed using carbon dioxide and the liver tissues were extracted. […] Twenty randomly selected microscopic fields were photographed and analyzed using a Nikon bright-field optical microscope (Nikon TE-2000U).
After preparing the 7 groups, the animals were sacrificed using carbon dioxide and the liver tissues were extracted. After staining the liver tissues with H&E, scores were calculated using the MAFLD activity scoring system. […]

SMILES: N#Cc1ccc2c(c1)/C(=C1/Nc3ccccc3C1=O)C(=O)N2 [5-cyanoindirubin]
- Degree of liver fibrosis (fibrosis score) [1]: 2.89
- lipid droplet formation and lipid infiltration in liver, Oil Red O staining [2]: no significant difference was observed
- pIC50 [3]: 4.96
- steatosis / lipid droplets in liver tissue, H&E staining [4]: steatosis was also confirmed clearly
- fatty liver, morphological observation of liver tissue ([4]; vs MASH group (vehicle)): fatty liver was not alleviated significantly
